For orientation: Dmax means the greatest extent of degradation seen.

The values that follow come from US20260184710A1, “CASITAS B-LINEAGE LYMPHOMA PROTOONCOGENE B (CBL-B) DEGRADING COMPOUNDS AND ASSOCIATED METHODS OF USE” (Arvinas Operations, Inc., priority 2022, published 2026).

In test [1] the target is T1, Cbl-b (Homo sapiens, UniProt Q13191).
T1 construct: Cbl-b-HiBit KI Jurkat Cells were purchased from Promega; host or cells: Cbl-b-HiBiT knock-in Jurkat cells
As to the kind of experiment: Cbl-b Degradation Method A (FACS, anti-Cbl-b antibody staining). It is filed as cell-based. The settings on record: Cbl-b-HiBit KI Jurkat Cells, incubated at least 20 hours; for DC50: half maximal degradation, read-out: Cbl-b Degredation Method A IC50; for Dmax: Jurkat, maximum degradation observed, read-out: Cbl-b Degredation Method A Dmax (%). Put shortly: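 Cbl-b-HiBit KI Jurkat cells treated with compound for at least 20 h at 37 °C, then fixed, permeabilized and stained with anti-Cbl-b antibody plus anti-rabbit AF488 secondary. Cbl-b levels read by FACS; DC50 and Dmax (percent of control) derived.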
Background: HiBiT is a short tag that completes a luciferase, so light tracks the accessible tagged protein.

Test [2] has as its target T1, Cbl-b. The test can be described thus: Cbl-b Degradation Method B (Nano-Glo HiBiT lytic detection). It is filed as cell-based. The settings on record: Cbl-b-HiBit KI Jurkat Cells, incubated at least 6-24 hours; for DC50: half maximal degradation, read-out: Cbl-b Degredation Method B IC50; for Cbl-b Degredation Method B Dmax (%): maximum degradation observed. The method in brief: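 Cbl-b-HiBiT knock-in Jurkat cells (20,000/well) were treated after ~24 h plating with an 11-point 1:3 series for 6-24 h at 37° C. Remaining Cbl-b measured by Nano-Glo HiBiT lytic luminescence. DC50 and Dmax expressed as % of control.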

T1 sequence (Q13191 whole entry): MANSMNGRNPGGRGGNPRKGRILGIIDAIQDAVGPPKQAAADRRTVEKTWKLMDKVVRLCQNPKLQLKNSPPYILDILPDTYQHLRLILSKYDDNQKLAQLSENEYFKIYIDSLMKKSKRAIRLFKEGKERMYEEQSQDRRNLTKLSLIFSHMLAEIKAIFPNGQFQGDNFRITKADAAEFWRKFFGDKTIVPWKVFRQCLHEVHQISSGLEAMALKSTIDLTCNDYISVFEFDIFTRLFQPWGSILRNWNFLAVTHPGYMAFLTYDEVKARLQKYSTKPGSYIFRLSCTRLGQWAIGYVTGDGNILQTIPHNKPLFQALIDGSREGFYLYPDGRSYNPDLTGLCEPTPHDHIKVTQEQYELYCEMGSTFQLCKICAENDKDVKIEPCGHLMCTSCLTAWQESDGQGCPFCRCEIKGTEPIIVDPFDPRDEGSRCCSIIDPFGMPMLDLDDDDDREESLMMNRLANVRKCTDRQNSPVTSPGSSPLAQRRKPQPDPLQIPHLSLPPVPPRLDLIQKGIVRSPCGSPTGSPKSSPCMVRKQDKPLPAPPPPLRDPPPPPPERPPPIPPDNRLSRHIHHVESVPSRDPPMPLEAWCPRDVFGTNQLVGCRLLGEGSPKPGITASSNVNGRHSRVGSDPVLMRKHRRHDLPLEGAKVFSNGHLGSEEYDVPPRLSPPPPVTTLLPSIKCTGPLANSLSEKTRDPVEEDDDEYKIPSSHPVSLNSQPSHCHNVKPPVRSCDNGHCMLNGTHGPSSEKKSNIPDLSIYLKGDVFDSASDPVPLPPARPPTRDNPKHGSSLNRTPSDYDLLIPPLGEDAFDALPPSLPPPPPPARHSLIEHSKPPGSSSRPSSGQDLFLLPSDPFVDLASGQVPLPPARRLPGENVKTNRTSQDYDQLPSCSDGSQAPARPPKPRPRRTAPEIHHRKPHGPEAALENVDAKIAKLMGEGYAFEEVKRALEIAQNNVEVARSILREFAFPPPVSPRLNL

As to `Cn1cnnc1C[C@]1(c2cccc(N3Cc4c(cc(CN5CCN(C[C@H]6CC[C@H](OC7CCN(c8cccc9c8nc(OC(F)F)n9C8CCC(=O)NC8=O)CC7)CC6)CC5(C)C)cc4C(F)(F)F)C3=O)c2)C[C@H](C#N)C1` (stereo partly drawn) [Example 325, (1r,3r)-3-(3-{6-[(2,2-dimethyl-4-{[(1r,4r)-4-({1-[2-(difluoromethoxy)-1-(2,6-dioxopiperidin-3-yl)-1H-1,3-benzodiazol-4-yl]piperidin-4-yl}oxy)cyclohexyl]methyl}piperazin-1-yl)methyl]-1-oxo-4-(trifluoromethyl)-2,3-dihydro-1H-isoindol-2-yl}phenyl)-3-[(4-methyl-4H-1,2,4-triazol-3-yl)methyl]cyclobutane-1-carbonitrile], in test [1], the DC50 lay within 50 to 500 nM and the Dmax fell in the range of 35 to 70%. In test [2], the DC50 was 5 to 50 nM and the “Cbl-b Degredation Method B Dmax (%)” value is recorded as “C (C ≤ 35)”.
For `CC(C)n1c(=O)n(C2CCC(=O)NC2=O)c2cccc(N3CCC(O[C@H]4CC[C@H](CN5CCN(Cc6cc7c(c(C(F)(F)F)c6)CN(c6cccc([C@]8(Cc9nncn9C)C[C@H](C#N)C8)c6)C7=O)CC[C@@H]5C)CC4)CC3)c21` (stereo partly drawn) [Example 326, (1r,3r)-3-[3-(6-{[(5S)-5-methyl-4-{[(1r,4r)-4-({1-[1-(2,6-dioxopiperidin-3-yl)-2-oxo-3-(propan-2-yl)-2,3-dihydro-1H-1,3-benzodiazol-4-yl]piperidin-4-yl}oxy)cyclohexyl]methyl}-1,4-diazepan-1-yl]methyl}-1-oxo-4-(trifluoromethyl)-2,3-dihydro-1H-isoindol-2-yl)phenyl]-3-[(4-methyl-4H-1,2,4-triazol-3-yl)methyl]cyclobutane-1-carbonitrile] the same measures were 50 to 500 nM, 35 to 70%, less than 5 nM and “C (C ≤ 35)”.
Regarding `CC(C)n1c(=O)n(C2CCC(=O)NC2=O)c2cccc(N3CCC(O[C@H]4CC[C@H](CN5CC6(CN(Cc7cc8c(c(C(F)(F)F)c7)CN(c7cccc([C@]9(Cc%10nncn%10C)C[C@@H](C#N)C9)c7)C8=O)C6)C5)CC4)CC3)c21` (stereo partly drawn) [Example 327, (1r,3r)-3-[(4-methyl-4H-1,2,4-triazol-3-yl)methyl]-3-(3-{1-oxo-6-[(6-{[(1r,4r)-4-({1-[1-(2,6-dioxopiperidin-3-yl)-2-oxo-3-(propan-2-yl)-2,3-dihydro-1H-1,3-benzodiazol-4-yl]piperidin-4-yl}oxy)cyclohexyl]methyl}-2,6-diazaspiro[3.3]heptan-2-yl)methyl]-4-(trifluoromethyl)-2,3-dihydro-1H-isoindol-2-yl}phenyl)cyclobutane-1-carbonitrile], in test [1], the DC50 lay in the range of 5 to 50 nM and the Dmax fell in the range of 35 to 70%. Also, in test [2], the DC50 was less than 5 nM and the “Cbl-b Degredation Method B Dmax (%)” value is reported as “C (C ≤ 35)”.
